# Measured values as given in US10092590B2, “Composition of HMB and ATP and methods of use” (Metabolic Technologies, Inc., priority 2012, dated 2018).
# How the values were obtained:
# [1] = Perceived Recovery Status (PRS) scale; format: in vivo, human; conditions: over the 12-week study
# Experimental: (§1) Prior to the study, participants were randomly assigned to receive either 3 g per day of HMB Free Acid (HMB) (combined with food-grade orange flavors and sweeteners), 400 mg per day of ATP (PEAK ATP®; TSI, Inc.), a combination of both 3 g of HMB and 400 mg per day of ATP, or a placebo (food-grade orange flavors and sweeteners) divided equally into three servings daily with the first serving given 30 minutes prior to exercise and the remaining two servings daily with the mid-day and evening meals. On the non-training days participants were instructed to consume one serving with each of three separate meals. The supplementation was continued daily throughout the training and testing protocols. Each serving was formulated with 1 gram of HMB free acid to account for fill and emptying variation and achieve a minimum effective dosage of 0.800 grams. This dosage would be equivalent to a 1 gram Ca-HMB dosage.
# Perceived Recovery Status (PRS) scale was measured at weeks 0, 4, 8, 9, 10, and 12 to assess subjective recovery during the training phases. The PRS scale consists of values between 0-10, with 0-2 being very poorly recovered and with anticipated declines in performance, 4-6 being low to moderately recovered and expected similar performance, and 8-10 representing high perceived recovery with expected increases in performance.
# [2] = Body composition by dual x-ray absorptiometry (weight, lean body mass, fat); format: in vivo, human
# [3] = Skeletal muscle hypertrophy, ultrasonography quadriceps muscle thickness (VL and VI); format: in vivo, human; conditions: week 8 of study
# [4] = tested on: creatine kinase (CK); test: Serum creatine kinase (muscle damage), colorimetric; format: in vivo, human; conditions: week 9 (overreaching); mean ± SEM
# Experimental: as §1, with “dosage. […]” for “dosage.”
# (§2) Samples were thawed one time and analyzed in duplicate for each analyte. […] All hormones were measured in the same assay on the same day to avoid compounded interassay variance. […] Serum creatine kinase (CK) was measured using colorimetric procedures at 340 nm (Diagnostics Chemicals, Oxford, Conn.). Twenty-four hour urine collections were made and 3-methylhistine was determined by previously described methods (Rathmacher et al 1992 and Wilson et al, 2013).
# [5] = tested on: cortisol; test: Serum cortisol, ELISA; format: in vivo, human; conditions: week 9 (overreaching); mean ± SEM
# Experimental: as §1, with “dosage. […]” for “dosage.”
# as §2
# [6] = tested on: total testosterone; test: Serum total testosterone, ELISA; format: in vivo, human; conditions: week 9 (overreaching); mean ± SEM
# Experimental: as §1, with “dosage. […]” for “dosage.”
# as §2
# [7] = tested on: skeletal muscle protein synthesis; conditions: acute ingestion of 2.4 grams; cited from earlier work
smiles,measurement,setting,value
"Nc1ncnc2c1ncn2[C@@H]1O[C@H](COP(=O)(O)OP(=O)(O)OP(=O)(O)O)[C@@H](O)[C@H]1O [ATP, Adenosine-5′-triphosphate]",effect on PRS,[1],no main effect
"CC(C)(O)CC(=O)O [HMB-FA, β-hydroxy-β-methylbutyric acid]",DXA LBM,[2]; week 4 of study,69.2 ± 2.7 kg
same,DXA Fat,[2]; week 8 of study,15.9 ± 1.5 %
same,DXA LBM,[2]; week 8 of study,71.3 ± 2.7 kg
same,Quad (quadriceps muscle thickness),[3],56.0 ± 1.4 mm
same,CK,[4],288 ± 18 IU/L
same,Cortisol,[5],19.6 ± 1.1 µg/dL
same,Total Testosterone,[6],752 ± 61 ng/dL
same,decrease in protein breakdown,[7],−56%
same,increase in skeletal muscle protein synthesis,[7],+70%
